pIC50: −log10 of the molar value. Read-outs that look alike come from different tables or passages of the source.
Experiments:
HCoV-HKU1 Mpro = HCoV-HKU1 Mpro (Human coronavirus HKU1, UniProt P0C6X2); assay: HCoV-HKU1 Mpro enzymatic inhibition assay (fluorescence); type: biochemical
Protocol: (§1) The hCoV Mpro are cloned, expressed in E. coli and purified by WuXi AppTec Co., Ltd. The substrate are synthesized by Genscript Biotech.
(§2) Compounds are 3 fold serially diluted for 10 doses and added to an assay plate (384w format) using ECHO, in duplicate wells. The test concentration of test compounds is defined by sponsor. […] For no inhibition control (ZPE, zero percent effect), DMSO is added.
(§3) 25 μL of Mpro proteins are added to the assay plates containing compounds, respectively, using Multidrop. The compounds and Mpro proteins are pre-incubated at room temperature for 30 min. Then 5 µL of Mpro substrates are added to the related assay plates, respectively. Each activity testing point has a relevant background control to normalize the fluorescence interference of compound.
(§4) After 60 min incubation at 30° C., the fluorescence signal (RFU) is detected using a microplate reader M2e (SpectraMax) at Ex/Em=340 nm/490 nm.
(§5) The inhibition activity is calculated using the formula below, IC50 values will be calculated using the Inhibition % data.
(§6) Inhibition %=[(CPD−BGCPD)−(ZPE−BGZPE)/(HPE−BGHPE)−(ZPE−BGZPE)]×[…] • CPD: Signal of test compounds wells, containing compound+enzyme+substrate. • ZPE: Average of signals of zero percent effective control wells, containing enzyme+substrate, no compound. • HPE: Average of signals of hundred percent effect control wells, containing GC376+enzyme+substrate. • BG: Compound background control wells, containing compound+substrate, no enzyme
(§7) IC50 values of compounds are calculated with the GraphPad Prism software using the nonlinear regression model of log(inhibitor) vs. response—Variable slope (four parameters).

HCoV-229E Mpro = HCoV-229E Mpro (Human coronavirus 229E, UniProt P0C6X1); assay: HCoV-229E Mpro enzymatic inhibition assay (fluorescence); type: biochemical
HCoV-229E Mpro, sequence (P0C6X1 2966-3267 limits assumed): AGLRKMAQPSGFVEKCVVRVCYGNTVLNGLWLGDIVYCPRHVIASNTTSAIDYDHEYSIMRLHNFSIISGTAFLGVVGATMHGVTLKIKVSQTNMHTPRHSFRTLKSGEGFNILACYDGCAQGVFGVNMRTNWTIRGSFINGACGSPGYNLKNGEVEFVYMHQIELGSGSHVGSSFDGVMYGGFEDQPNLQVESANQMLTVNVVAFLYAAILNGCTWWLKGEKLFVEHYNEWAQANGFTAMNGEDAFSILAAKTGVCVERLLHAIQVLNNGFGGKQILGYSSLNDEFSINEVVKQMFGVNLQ
Protocol: as §1, §2, §3, §4, §5, §6, §7

SARS-CoV-2 Mpro = SARS-CoV-2 Mpro (Severe acute respiratory syndrome coronavirus 2, UniProt P0DTD1); assay: SARS-CoV-2 Mpro enzymatic inhibition assay (fluorescence); type: biochemical
Protocol: as §1
Compounds are 3 fold serially diluted for 10 doses and added to an assay plate (384w format) using ECHO, in duplicate wells. The test concentration of test compounds is defined by sponsor.
25 μL of Mpro proteins are added to the assay plates containing compounds, respectively, using Multidrop. The compounds and Mpro proteins are pre-incubated at room temperature for 30 min. Then 5 µL of Mpro substrates are added to the related assay plates, respectively.
as §4, §5, §7

SARS-CoV-1 Mpro = SARS-CoV-1 Mpro (Severe acute respiratory syndrome coronavirus, UniProt P0C6X7); assay: biochemical
MERS Mpro = MERS Mpro (Middle East respiratory syndrome-related coronavirus, UniProt K9N7C7); assay: biochemical; parameters: species or system MERS-CoV
MERS Mpro, sequence (K9N7C7 3248-3553 limits assumed): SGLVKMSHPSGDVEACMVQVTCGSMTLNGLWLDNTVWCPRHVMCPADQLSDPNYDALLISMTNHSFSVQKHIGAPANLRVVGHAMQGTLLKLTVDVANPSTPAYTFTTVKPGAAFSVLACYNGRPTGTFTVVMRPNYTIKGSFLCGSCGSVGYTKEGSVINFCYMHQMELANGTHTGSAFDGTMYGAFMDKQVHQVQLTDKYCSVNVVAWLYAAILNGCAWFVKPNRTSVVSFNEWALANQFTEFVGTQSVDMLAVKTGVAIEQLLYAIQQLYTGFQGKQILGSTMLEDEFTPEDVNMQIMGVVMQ

HCoV-OC43 Mpro = HCoV-OC43 Mpro (Human coronavirus OC43, UniProt P0C6X6); assay: HCoV-OC43 Mpro enzymatic inhibition assay (fluorescence); type: biochemical
HCoV-OC43 Mpro, sequence (P0C6X6 3247-3549 limits assumed): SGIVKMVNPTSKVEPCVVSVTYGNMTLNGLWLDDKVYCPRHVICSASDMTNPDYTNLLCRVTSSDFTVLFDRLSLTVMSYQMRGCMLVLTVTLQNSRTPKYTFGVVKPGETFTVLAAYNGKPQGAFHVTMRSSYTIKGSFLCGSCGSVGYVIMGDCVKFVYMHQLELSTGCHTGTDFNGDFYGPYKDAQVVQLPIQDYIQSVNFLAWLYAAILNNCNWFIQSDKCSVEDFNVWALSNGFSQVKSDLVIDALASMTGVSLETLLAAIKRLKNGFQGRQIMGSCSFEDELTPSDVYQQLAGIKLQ
Protocol: as §1, §2, §3, §4, §5, §6, §7

HCoV-NL63 Mpro = HCoV-NL63 Mpro (Human coronavirus NL63, UniProt P0C6X5); assay: HCoV-NL63 Mpro enzymatic inhibition assay (fluorescence); type: biochemical
HCoV-NL63 Mpro, sequence (P0C6X5 2940-3242 limits assumed): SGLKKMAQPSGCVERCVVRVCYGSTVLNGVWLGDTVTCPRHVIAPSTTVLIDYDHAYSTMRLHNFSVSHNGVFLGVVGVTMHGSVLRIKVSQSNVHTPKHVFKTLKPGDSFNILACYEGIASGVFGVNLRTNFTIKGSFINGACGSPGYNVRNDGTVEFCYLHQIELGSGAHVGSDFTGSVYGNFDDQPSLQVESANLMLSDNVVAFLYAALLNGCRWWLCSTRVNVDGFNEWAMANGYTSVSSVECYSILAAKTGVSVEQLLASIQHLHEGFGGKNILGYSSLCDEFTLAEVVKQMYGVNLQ
Protocol: as §1, §2, §3, §4, §5, §6, §7

HCoV-HKU1 Mpro, sequence (P0C6X2 3335-3637 limits assumed): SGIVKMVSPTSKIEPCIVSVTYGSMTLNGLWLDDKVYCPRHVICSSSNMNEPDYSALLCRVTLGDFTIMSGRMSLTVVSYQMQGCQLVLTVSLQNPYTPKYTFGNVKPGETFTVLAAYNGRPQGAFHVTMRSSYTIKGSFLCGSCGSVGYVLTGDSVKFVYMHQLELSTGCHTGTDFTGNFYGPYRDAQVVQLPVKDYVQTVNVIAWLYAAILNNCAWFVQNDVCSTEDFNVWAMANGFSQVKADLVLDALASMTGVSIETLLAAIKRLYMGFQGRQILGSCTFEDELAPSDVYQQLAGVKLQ

Compound O=C[C@H](C[C@@H]1CCNC1=O)NC(=O)[C@@H]1CC2(CCC2)CN1C(=O)c1cc2ccccc2[nH]1 [Compound 10, (S)-6-(1H-indole-2-carbonyl)-N—((S)-1-oxo-3-((S)-2-oxopyrrolidin-3-yl)propan-2-yl)-6-azaspiro[3.4]octane-7-carboxamide] has a pIC50 (HCoV-HKU1 Mpro) of 7.75, a pIC50 (HCoV-229E Mpro) of 7.49 and a pIC50 (SARS-CoV-2 Mpro) of 7.91. The pIC50 (SARS-CoV-1 Mpro) was 7.34, the pIC50 (MERS Mpro) was 6.71 and the pIC50 (HCoV-OC43 Mpro) was 7.45. The pIC50 (HCoV-NL63 Mpro) was 7.35.

CC1(C)[C@@H]2[C@@H](C(=O)N[C@H](C=O)C[C@@H]3CCCNC3=O)N(C(=O)c3cc4ccccc4[nH]3)C[C@@H]21 [Compound 11, (1R,2S,5S)-3-(1H-indole-2-carbonyl)-6,6-dimethyl-N—((S)-1-oxo-3-((S)-2-oxopiperidin-3-yl)propan-2-yl)-3-azabicyclo[3.1.0]hexane-2-carboxamide] gave a pIC50 (HCoV-HKU1 Mpro) of 7.40, a pIC50 (HCoV-229E Mpro) of 7.43 and a pIC50 (SARS-CoV-2 Mpro) of 7.88. It also gave a pIC50 (SARS-CoV-1 Mpro) of 7.42, a pIC50 (MERS Mpro) of 6.64 and a pIC50 (HCoV-OC43 Mpro) of 7.47. For the same compound, the pIC50 (HCoV-NL63 Mpro) was 7.30.

Work on CC1(C)[C@@H]2[C@@H](C(=O)N[C@H](C=O)C[C@@H]3CCNC3=O)N(C(=O)c3cc4c(F)ccc(F)c4[nH]3)C[C@@H]21 [Compound 13, (1R,2S,5S)-3-(4,7-difluoro-1H-indole-2-carbonyl)-6,6-dimethyl-N—((S)-1-oxo-3-((S)-2-oxopyrrolidin-3-yl)propan-2-yl)-3-azabicyclo[3.1.0]hexane-2-carboxamide] yielded a pIC50 (HCoV-HKU1 Mpro) of 7.42, a pIC50 (HCoV-229E Mpro) of 7.32 and a pIC50 (SARS-CoV-2 Mpro) of 7.85. For the same compound, the pIC50 (SARS-CoV-1 Mpro) was 7.42, the pIC50 (MERS Mpro) was 6.43 and the pIC50 (HCoV-OC43 Mpro) was 7.16. It also gave a pIC50 (HCoV-NL63 Mpro) of 7.12.

For CCc1cccc2[nH]c(C(=O)N3C[C@H]4[C@@H]([C@H]3C(=O)N[C@H](C=O)C[C@@H]3CCNC3=O)C4(C)C)cc12 [Compound 14, (1R,2S,5S)-3-(4-ethyl-1H-indole-2-carbonyl)-6,6-dimethyl-N—((S)-1-oxo-3-((S)-2-oxopyrrolidin-3-yl)propan-2-yl)-3-azabicyclo[3.1.0]hexane-2-carboxamide], the pIC50 (HCoV-HKU1 Mpro) was 7.65, the pIC50 (HCoV-229E Mpro) was 7.40 and the pIC50 (SARS-CoV-2 Mpro) was 7.84. The pIC50 (SARS-CoV-1 Mpro) was 7.28, the pIC50 (MERS Mpro) was 6.49 and the pIC50 (HCoV-OC43 Mpro) was 7.40. The pIC50 (HCoV-NL63 Mpro) was 7.31.

In the case of CC1(C)[C@@H]2[C@@H](C(=O)N[C@H](C=O)C[C@@H]3CCNC3=O)N(C(=O)c3cc4c(F)cccc4[nH]3)C[C@@H]21 [Compound 15, (1R,2S,5S)-3-(4-fluoro-1H-indole-2-carbonyl)-6,6-dimethyl-N—((S)-1-oxo-3-((S)-2-oxopyrrolidin-3-yl)propan-2-yl)-3-azabicyclo[3.1.0]hexane-2-carboxamide], the pIC50 (HCoV-HKU1 Mpro) was 7.62, the pIC50 (HCoV-229E Mpro) was 7.40 and the pIC50 (SARS-CoV-2 Mpro) was 7.84. For the same compound, the pIC50 (SARS-CoV-1 Mpro) was 7.49, the pIC50 (MERS Mpro) was 6.76 and the pIC50 (HCoV-OC43 Mpro) was 7.48. The pIC50 (HCoV-NL63 Mpro) was 7.35.

In the case of CC1(C)[C@@H]2[C@@H](C(=O)N[C@H](C=O)C[C@@H]3CCNC3=O)N(C(=O)CC3CCC(F)(F)CC3)C[C@@H]21 [Compound 16, (1R,2S,5S)-3-(2-(4,4-difluorocyclohexyl)acetyl)-6,6-dimethyl-N—((S)-1-oxo-3-((S)-2-oxopyrrolidin-3-yl)propan-2-yl)-3-azabicyclo[3.1.0]hexane-2-carboxamide], the pIC50 (HCoV-HKU1 Mpro) was 7.90, the pIC50 (HCoV-229E Mpro) was 7.60 and the pIC50 (SARS-CoV-2 Mpro) was 7.84. For the same compound, the pIC50 (SARS-CoV-1 Mpro) was 7.63, the pIC50 (MERS Mpro) was 6.80 and the pIC50 (HCoV-OC43 Mpro) was 7.52. The pIC50 (HCoV-NL63 Mpro) was 7.54.

CC1(C)[C@@H]2[C@@H](C(=O)N[C@H](C=O)C[C@@H]3CCNC3=O)N(C(=O)C3(c4ccccc4)CCCC3)C[C@@H]21 [Compound 17, (1R,2S,5S)-6,6-dimethyl-N—((S)-1-oxo-3-((S)-2-oxopyrrolidin-3-yl)propan-2-yl)-3-(1-phenylcyclopentanecarbonyl)-3-azabicyclo[3.1.0]hexane-2-carboxamide] was tested, and the pIC50 (HCoV-HKU1 Mpro) was 7.62, the pIC50 (HCoV-229E Mpro) was 7.32 and the pIC50 (SARS-CoV-2 Mpro) was 7.82. For the same compound, the pIC50 (SARS-CoV-1 Mpro) was 7.56, the pIC50 (MERS Mpro) was 6.56 and the pIC50 (HCoV-OC43 Mpro) was 7.22. For the same compound, the pIC50 (HCoV-NL63 Mpro) was 6.74.

Compound Cc1ccc2cc(C(=O)N3C[C@H]4[C@@H]([C@H]3C(=O)N[C@H](C=O)C[C@@H]3CCNC3=O)C4(C)C)[nH]c2c1C [Compound 18, (1R,2S,5S)-3-(6,7-dimethyl-1H-indole-2-carbonyl)-6,6-dimethyl-N—((S)-1-oxo-3-((S)-2-oxopyrrolidin-3-yl)propan-2-yl)-3-azabicyclo[3.1.0]hexane-2-carboxamide] has a pIC50 (HCoV-HKU1 Mpro) of 7.48, a pIC50 (HCoV-229E Mpro) of 7.41 and a pIC50 (SARS-CoV-2 Mpro) of 7.82. It also gave a pIC50 (SARS-CoV-1 Mpro) of 7.47, a pIC50 (MERS Mpro) of 6.52 and a pIC50 (HCoV-OC43 Mpro) of 7.18. It also gave a pIC50 (HCoV-NL63 Mpro) of 7.12.

Work on CC1(C)[C@@H]2[C@@H](C(=O)N[C@H](C=O)C[C@@H]3CCNC3=O)N(C(=O)c3cc4ccc(F)cc4[nH]3)C[C@@H]21 [Compound 19, (1R,2S,5S)-3-(6-fluoro-1H-indole-2-carbonyl)-6,6-dimethyl-N—((S)-1-oxo-3-((S)-2-oxopyrrolidin-3-yl)propan-2-yl)-3-azabicyclo[3.1.0]hexane-2-carboxamide] yielded a pIC50 (HCoV-HKU1 Mpro) of 7.74, a pIC50 (HCoV-229E Mpro) of 7.56 and a pIC50 (SARS-CoV-2 Mpro) of 7.81. The pIC50 (SARS-CoV-1 Mpro) was 7.40, the pIC50 (MERS Mpro) was 6.73 and the pIC50 (HCoV-OC43 Mpro) was 7.30. For the same compound, the pIC50 (HCoV-NL63 Mpro) was 7.43.

CC1(C)[C@@H]2[C@@H](C(=O)N[C@H](C=O)C[C@@H]3CCNC3=O)N(C(=O)c3cc4c(F)cc(F)cc4[nH]3)C[C@@H]21 [Compound 20, (1R,2S,5S)-3-(4,6-difluoro-1H-indole-2-carbonyl)-6,6-dimethyl-N—((S)-1-oxo-3-((S)-2-oxopyrrolidin-3-yl)propan-2-yl)-3-azabicyclo[3.1.0]hexane-2-carboxamide] gave a pIC50 (HCoV-HKU1 Mpro) of 7.78, a pIC50 (HCoV-229E Mpro) of 7.40 and a pIC50 (SARS-CoV-2 Mpro) of 7.81. It also gave a pIC50 (SARS-CoV-1 Mpro) of 7.39, a pIC50 (MERS Mpro) of 6.56 and a pIC50 (HCoV-OC43 Mpro) of 7.26. The pIC50 (HCoV-NL63 Mpro) was 7.43.

CC1(C)[C@@H]2[C@@H](C(=O)N[C@H](C=O)C[C@@H]3CCNC3=O)N(C(=O)c3cc4ccc(Cl)c(F)c4[nH]3)C[C@@H]21 [Compound 21, (1R,2S,5S)-3-(6-chloro-7-fluoro-1H-indole-2-carbonyl)-6,6-dimethyl-N—((S)-1-oxo-3-((S)-2-oxopyrrolidin-3-yl)propan-2-yl)-3-azabicyclo[3.1.0]hexane-2-carboxamide] was tested, and the pIC50 (HCoV-HKU1 Mpro) was 7.42, the pIC50 (HCoV-229E Mpro) was 7.65 and the pIC50 (SARS-CoV-2 Mpro) was 7.81. The pIC50 (SARS-CoV-1 Mpro) was 7.56, the pIC50 (MERS Mpro) was 6.63 and the pIC50 (HCoV-OC43 Mpro) was 7.23. It also gave a pIC50 (HCoV-NL63 Mpro) of 7.24.

In the case of CC1(C)[C@@H]2[C@@H](C(=O)N[C@H](C=O)C[C@@H]3CCNC3=O)N(C(=O)CC3CCCC(F)(F)C3)C[C@@H]21 (stereo partly drawn) [Compound 22, (1R,2S,5S)-3-(2-(3,3-difluorocyclohexyl)acetyl)-6,6-dimethyl-N—((S)-1-oxo-3-((S)-2-oxopyrrolidin-3-yl)propan-2-yl)-3-azabicyclo[3.1.0]hexane-2-carboxamide], the pIC50 (HCoV-HKU1 Mpro) was 7.98, the pIC50 (HCoV-229E Mpro) was 7.61 and the pIC50 (SARS-CoV-2 Mpro) was 7.80. It also gave a pIC50 (SARS-CoV-1 Mpro) of 7.56, a pIC50 (MERS Mpro) of 6.91 and a pIC50 (HCoV-OC43 Mpro) of 7.55. For the same compound, the pIC50 (HCoV-NL63 Mpro) was 7.43.

CC1(C)[C@@H]2[C@@H](C(=O)N[C@H](C=O)C[C@@H]3CCNC3=O)N(C(=O)Cc3ccccc3)C[C@@H]21 [Compound 23, (1R,2S,5S)-6,6-dimethyl-N—((S)-1-oxo-3-((S)-2-oxopyrrolidin-3-yl)propan-2-yl)-3-(2-phenylacetyl)-3-azabicyclo[3.1.0]hexane-2-carboxamide] was tested, and the pIC50 (HCoV-HKU1 Mpro) was 7.65, the pIC50 (HCoV-229E Mpro) was 7.47 and the pIC50 (SARS-CoV-2 Mpro; mean, 25 nM protein, 25 μM substrate, 30 min pre-incubation, 60 min at 30° C., read-out: Mpro_SARS-CoV-2 mean IC50) was 7.80. The pIC50 (SARS-CoV-1 Mpro) was 7.63, the pIC50 (MERS Mpro) was 6.90 and the pIC50 (HCoV-OC43 Mpro) was 7.52. The pIC50 (HCoV-NL63 Mpro) was 7.30.

Reference: US20260355212A1 (priority 2022, published 2026)
